#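 Grown in 96-well plates, cells were treated for 48 hours with each compound at five concentrations. Insufficient inhibition: endpoint recorded as highest concentration tested. The concentration for full growth arrest is given as TGI.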
# Columns and labels:
# Test in all cases: NCI anticancer screen, dose series, 48 h
# 786-0 renal = system: 786-0 renal
# A498 renal = system: A498 renal
# A549 NSCLC = system: A549 NSCLC
# ACHN renal = system: ACHN renal
# BT-549 breast = system: BT-549 breast
# CAKI-1 renal = system: CAKI-1 renal
# CCRF-CEM leukemia = system: CCRF-CEM leukemia
# COLO 205 colon = system: COLO 205 colon
# DU-145 prostate = system: DU-145 prostate
# EKVX NSCLC = system: EKVX NSCLC
# HCC-2998 colon = system: HCC-2998 colon
# HCT-116 colon = system: HCT-116 colon
# HCT-15 colon = system: HCT-15 colon
# HL-60(TB) leukemia = system: HL-60(TB) leukemia
# HOP-62 NSCLC = system: HOP-62 NSCLC
# HOP-92 NSCLC = system: HOP-92 NSCLC
# HS 578T breast = system: HS 578T breast
# HT29 colon = system: HT29 colon
# IGROV1 ovarian = system: IGROV1 ovarian
# K-562 leukemia = system: K-562 leukemia
# KM12 colon = system: KM12 colon
# LOX IMVI melanoma = system: LOX IMVI melanoma
# M14 melanoma = system: M14 melanoma
# MALME-3M melanoma = system: MALME-3M melanoma
# MCF7 breast = system: MCF7 breast
# MDA-MB-231 breast = system: MDA-MB-231 breast
# MDA-MB-435 = system: MDA-MB-435
# MDA-N = system: MDA-N
# MOLT-4 leukemia = system: MOLT-4 leukemia
# NCI-H226 lung = system: NCI-H226 lung
# NCI-H23 lung = system: NCI-H23 lung
# NCI-H460 lung = system: NCI-H460 lung
# NCI-H522 lung = system: NCI-H522 lung
# NCI/ADR-RES ovarian = system: NCI/ADR-RES ovarian
# OVCAR-3 ovarian = system: OVCAR-3 ovarian
# OVCAR-4 ovarian = system: OVCAR-4 ovarian
# OVCAR-5 ovarian = system: OVCAR-5 ovarian
# OVCAR-8 ovarian = system: OVCAR-8 ovarian
# PC-3 prostate = system: PC-3 prostate
# RPMI-8226 leukemia = system: RPMI-8226 leukemia
# RXF 393 renal = system: RXF 393 renal
# SF-268 CNS = system: SF-268 CNS
# SF-295 CNS = system: SF-295 CNS
# SF-539 CNS = system: SF-539 CNS
# SK-MEL-2 melanoma = system: SK-MEL-2 melanoma
# SK-MEL-28 melanoma = system: SK-MEL-28 melanoma
# SK-MEL-5 melanoma = system: SK-MEL-5 melanoma
# SK-OV-3 ovarian = system: SK-OV-3 ovarian
# SN12C renal = system: SN12C renal
# SNB-19 CNS = system: SNB-19 CNS
# SR leukemia = system: SR leukemia
# SW-620 colon = system: SW-620 colon
# TK-10 renal = system: TK-10 renal
# U251 CNS = system: U251 CNS
# UACC-257 melanoma = system: UACC-257 melanoma
# UACC-62 melanoma = system: UACC-62 melanoma
# UO-31 renal = system: UO-31 renal
# SNB-75 CNS = system: SNB-75 CNS
# T-47D breast = system: T-47D breast
structure (smiles),measurement,setting,value
CCC1(CCSC(=N)N)C(=O)NC(=O)NC1=O,TGI,786-0 renal,> 100 µM
same,TGI,A498 renal,> 100 µM
same,TGI,A549 NSCLC,> 100 µM
same,TGI,ACHN renal,> 100 µM
same,TGI,BT-549 breast,> 100 µM
same,TGI,CAKI-1 renal,> 100 µM
same,TGI,CCRF-CEM leukemia,> 100 µM
same,TGI,COLO 205 colon,> 100 µM
same,TGI,DU-145 prostate,> 100 µM
same,TGI,EKVX NSCLC,> 100 µM
same,TGI,HCC-2998 colon,> 100 µM
same,TGI,HCT-116 colon,> 100 µM
same,TGI,HCT-15 colon,> 100 µM
same,TGI,HL-60(TB) leukemia,> 100 µM
same,TGI,HOP-62 NSCLC,> 100 µM
same,TGI,HOP-92 NSCLC,> 100 µM
same,TGI,HS 578T breast,> 100 µM
same,TGI,HT29 colon,> 100 µM
same,TGI,IGROV1 ovarian,> 100 µM
same,TGI,K-562 leukemia,> 100 µM
same,TGI,KM12 colon,> 100 µM
same,TGI,LOX IMVI melanoma,> 100 µM
same,TGI,M14 melanoma,> 100 µM
same,TGI,MALME-3M melanoma,> 100 µM
same,TGI,MCF7 breast,> 100 µM
same,TGI,MDA-MB-231 breast,> 100 µM
same,TGI,MDA-MB-435,> 100 µM
same,TGI,MDA-N,> 100 µM
same,TGI,MOLT-4 leukemia,> 100 µM
same,TGI,NCI-H226 lung,> 100 µM
same,TGI,NCI-H23 lung,> 100 µM
same,TGI,NCI-H460 lung,> 100 µM
same,TGI,NCI-H522 lung,> 100 µM
same,TGI,NCI/ADR-RES ovarian,> 100 µM
same,TGI,OVCAR-3 ovarian,> 100 µM
same,TGI,OVCAR-4 ovarian,> 100 µM
same,TGI,OVCAR-5 ovarian,> 100 µM
same,TGI,OVCAR-8 ovarian,> 100 µM
same,TGI,PC-3 prostate,> 100 µM
same,TGI,RPMI-8226 leukemia,> 100 µM
same,TGI,RXF 393 renal,> 100 µM
same,TGI,SF-268 CNS,> 100 µM
same,TGI,SF-295 CNS,> 100 µM
same,TGI,SF-539 CNS,> 100 µM
same,TGI,SK-MEL-2 melanoma,> 100 µM
same,TGI,SK-MEL-28 melanoma,> 100 µM
same,TGI,SK-MEL-5 melanoma,> 100 µM
same,TGI,SK-OV-3 ovarian,> 100 µM
same,TGI,SN12C renal,> 100 µM
same,TGI,SNB-19 CNS,> 100 µM
same,TGI,SR leukemia,> 100 µM
same,TGI,SW-620 colon,> 100 µM
same,TGI,TK-10 renal,> 100 µM
same,TGI,U251 CNS,> 100 µM
same,TGI,UACC-257 melanoma,> 100 µM
same,TGI,UACC-62 melanoma,> 100 µM
same,TGI,UO-31 renal,> 100 µM
CCN(CC)CCCNc1nc(=O)[nH]c(C)c1C(=O)Nc1c2ccccc2nc2ccccc12,TGI,786-0 renal,32.6 µM
same,TGI,A498 renal,31.8 µM
same,TGI,A549 NSCLC,44.2 µM
same,TGI,ACHN renal,57.4 µM
same,TGI,CAKI-1 renal,56 µM
same,TGI,CCRF-CEM leukemia,> 100 µM
same,TGI,COLO 205 colon,23.5 µM
same,TGI,DU-145 prostate,> 100 µM
same,TGI,EKVX NSCLC,74.5 µM
same,TGI,HCC-2998 colon,80.6 µM
same,TGI,HCT-116 colon,21.7 µM
same,TGI,HCT-15 colon,72.8 µM
same,TGI,HL-60(TB) leukemia,60.9 µM
same,TGI,HOP-62 NSCLC,> 100 µM
same,TGI,HOP-92 NSCLC,13.3 µM
same,TGI,HT29 colon,26.2 µM
same,TGI,IGROV1 ovarian,72.6 µM
same,TGI,K-562 leukemia,> 100 µM
same,TGI,KM12 colon,26.5 µM
same,TGI,LOX IMVI melanoma,45.4 µM
same,TGI,M14 melanoma,> 100 µM
same,TGI,MALME-3M melanoma,45.1 µM
same,TGI,MCF7 breast,> 100 µM
same,TGI,MDA-MB-231 breast,51.3 µM
same,TGI,MDA-MB-435,> 100 µM
same,TGI,MDA-N,23.7 µM
same,TGI,MOLT-4 leukemia,> 100 µM
same,TGI,NCI-H226 lung,93.8 µM
same,TGI,NCI-H23 lung,42.8 µM
same,TGI,NCI-H522 lung,21.3 µM
same,TGI,NCI/ADR-RES ovarian,45.7 µM
same,TGI,OVCAR-3 ovarian,51.6 µM
same,TGI,OVCAR-4 ovarian,86.3 µM
same,TGI,OVCAR-5 ovarian,> 100 µM
same,TGI,OVCAR-8 ovarian,59.1 µM
same,TGI,PC-3 prostate,> 100 µM
same,TGI,RPMI-8226 leukemia,47.4 µM
same,TGI,RXF 393 renal,97 µM
same,TGI,SF-295 CNS,27.3 µM
same,TGI,SF-539 CNS,41.8 µM
same,TGI,SK-MEL-2 melanoma,> 100 µM
same,TGI,SK-MEL-28 melanoma,> 100 µM
same,TGI,SK-MEL-5 melanoma,29 µM
same,TGI,SK-OV-3 ovarian,59 µM
same,TGI,SN12C renal,> 100 µM
same,TGI,SNB-19 CNS,62.2 µM
same,TGI,SNB-75 CNS,55.5 µM
same,TGI,SW-620 colon,> 100 µM
same,TGI,T-47D breast,73.5 µM
same,TGI,TK-10 renal,> 100 µM
same,TGI,U251 CNS,> 100 µM
same,TGI,UACC-257 melanoma,54.5 µM
same,TGI,UACC-62 melanoma,36.4 µM
same,TGI,UO-31 renal,32.3 µM
NC(N)=NC(P(=O)(O)O)P(=O)(O)O,TGI,786-0 renal,> 100 µM
same,TGI,A549 NSCLC,> 100 µM
same,TGI,ACHN renal,> 100 µM
same,TGI,BT-549 breast,> 100 µM
same,TGI,CAKI-1 renal,> 100 µM
same,TGI,COLO 205 colon,> 100 µM
same,TGI,DU-145 prostate,> 100 µM
same,TGI,EKVX NSCLC,> 100 µM
same,TGI,HCC-2998 colon,> 100 µM
same,TGI,HCT-116 colon,> 100 µM
same,TGI,HCT-15 colon,> 100 µM
same,TGI,HOP-62 NSCLC,> 100 µM
same,TGI,HS 578T breast,> 100 µM
same,TGI,IGROV1 ovarian,> 100 µM
same,TGI,KM12 colon,> 100 µM
same,TGI,LOX IMVI melanoma,> 100 µM
same,TGI,M14 melanoma,> 100 µM
same,TGI,MALME-3M melanoma,> 100 µM
same,TGI,MCF7 breast,> 100 µM
same,TGI,MDA-MB-231 breast,> 100 µM
same,TGI,MDA-N,> 100 µM
same,TGI,NCI-H226 lung,> 100 µM
same,TGI,NCI-H23 lung,> 100 µM
same,TGI,NCI-H460 lung,> 100 µM
same,TGI,NCI-H522 lung,> 100 µM
same,TGI,NCI/ADR-RES ovarian,> 100 µM
same,TGI,OVCAR-3 ovarian,> 100 µM
same,TGI,OVCAR-5 ovarian,> 100 µM
same,TGI,PC-3 prostate,> 100 µM
same,TGI,RXF 393 renal,> 100 µM
same,TGI,SF-268 CNS,> 100 µM
same,TGI,SF-295 CNS,> 100 µM
same,TGI,SF-539 CNS,> 100 µM
same,TGI,SK-MEL-5 melanoma,> 100 µM
same,TGI,SK-OV-3 ovarian,> 100 µM
same,TGI,SNB-19 CNS,> 100 µM
same,TGI,TK-10 renal,> 100 µM
same,TGI,UACC-257 melanoma,> 100 µM
same,TGI,UACC-62 melanoma,> 100 µM
same,TGI,UO-31 renal,> 100 µM
CCCCOC(=O)NC(Nc1ccc(S(=O)(=O)Nc2ccc(OC)nn2)cc1)(C(F)(F)F)C(F)(F)F,TGI,786-0 renal,> 100 µM
same,TGI,A498 renal,> 100 µM
same,TGI,A549 NSCLC,> 100 µM
same,TGI,ACHN renal,> 100 µM
same,TGI,CAKI-1 renal,> 100 µM
same,TGI,CCRF-CEM leukemia,> 100 µM
same,TGI,COLO 205 colon,> 100 µM
same,TGI,DU-145 prostate,> 100 µM
same,TGI,EKVX NSCLC,> 100 µM
same,TGI,HCC-2998 colon,> 100 µM
same,TGI,HCT-116 colon,> 100 µM
same,TGI,HCT-15 colon,> 100 µM
same,TGI,HL-60(TB) leukemia,> 100 µM
same,TGI,HOP-62 NSCLC,> 100 µM
same,TGI,HOP-92 NSCLC,> 100 µM
same,TGI,HT29 colon,> 100 µM
same,TGI,IGROV1 ovarian,> 100 µM
same,TGI,K-562 leukemia,> 100 µM
same,TGI,KM12 colon,> 100 µM
same,TGI,LOX IMVI melanoma,> 100 µM
same,TGI,M14 melanoma,> 100 µM
same,TGI,MALME-3M melanoma,> 100 µM
same,TGI,MCF7 breast,> 100 µM
same,TGI,MDA-MB-231 breast,> 100 µM
same,TGI,MDA-MB-435,> 100 µM
same,TGI,MDA-N,> 100 µM
same,TGI,MOLT-4 leukemia,> 100 µM
same,TGI,NCI-H226 lung,> 100 µM
same,TGI,NCI-H23 lung,> 100 µM
same,TGI,NCI-H460 lung,> 100 µM
same,TGI,NCI/ADR-RES ovarian,> 100 µM
same,TGI,OVCAR-3 ovarian,> 100 µM
same,TGI,OVCAR-4 ovarian,> 100 µM
same,TGI,OVCAR-5 ovarian,> 100 µM
same,TGI,OVCAR-8 ovarian,> 100 µM
same,TGI,PC-3 prostate,> 100 µM
same,TGI,RPMI-8226 leukemia,> 100 µM
same,TGI,RXF 393 renal,> 100 µM
same,TGI,SF-268 CNS,> 100 µM
same,TGI,SF-295 CNS,> 100 µM
same,TGI,SF-539 CNS,> 100 µM
same,TGI,SK-MEL-28 melanoma,> 100 µM
same,TGI,SK-MEL-5 melanoma,> 100 µM
same,TGI,SK-OV-3 ovarian,> 100 µM
same,TGI,SN12C renal,> 100 µM
same,TGI,SNB-19 CNS,> 100 µM
same,TGI,SR leukemia,> 100 µM
same,TGI,SW-620 colon,> 100 µM
same,TGI,T-47D breast,> 100 µM
same,TGI,TK-10 renal,> 100 µM
same,TGI,U251 CNS,> 100 µM
same,TGI,UACC-257 melanoma,> 100 µM
same,TGI,UACC-62 melanoma,> 100 µM
same,TGI,UO-31 renal,> 100 µM

# From PubChem BioAssay (NCI)
